Assay results as given in patent US11180462B2, “Microbiocidal oxadiazole derivatives” (SYNGENTA PARTICIPATIONS AG, priority 2015, dated 2021).

How the values were obtained:
Phakopsora Pachyrhizi = experiment: Fungicidal activity against Phakopsora pachyrhizi / soybean / leaf disc preventative (Asian soybean rust); assay type: in vivo; conditions: foliar, 200 ppm in the applied formulation, soybean leaf disks, compared to untreated control leaf disks, read-out: disease control
Method: Leaf disks or leaf segments of various plant species are cut from plants grown in a greenhouse. The cut leaf disks or segments are placed in multiwell plates (24-well format) onto water agar. The leaf disks are sprayed with a test solution before (preventative) or after (curative) inoculation. Compounds to be tested are prepared as DMSO solutions (max. 10 mg/ml) which are diluted to the appropriate concentration with 0.025% Tween20 just before spraying. The inoculated leaf disks or segments are incubated under defined conditions (temperature, relative humidity, light, etc.) according to the respective test system. A single evaluation of disease level is carried out 3 to 14 days after inoculation, depending on the pathosystem. Percent disease control relative to the untreated check leaf disks or segments is then calculated.
Fungicidal Activity Against Phakopsora Pachyrhizi Soybean/Leaf Disc Preventative (Asian Soybean Rust)
Soybean leaf disks are placed on water agar in multiwell plates (24-well format) and sprayed with the formulated test compound diluted in water. One day after application leaf discs are inoculated by spraying a spore suspension on the lower leaf surface. After an incubation period in a climate cabinet of 24-36 hours in darkness at 20° C. and 75% rh leaf disc are kept at 20° C. with 12 h light/day and 75% rh. The activity of a compound is assessed as percent disease control compared to untreated when an appropriate level of disease damage appears in untreated check leaf disks (12 to 14 days after application).
The following compounds at 200 ppm in the applied formulation give at least 80% disease control in this test when compared to untreated control leaf disks under the same conditions, which show extensive disease development.

[1] = system: Glomerella lagenarium (Colletotrichum lagenarium); experiment: Fungicidal activity against Glomerella lagenarium (Colletotrichum lagenarium) liquid culture / cucumber / preventative (anthracnose); assay type: cell-based; conditions: Colletotrichum orbiculare; 20 ppm in the applied formulation; liquid culture (PDB), growth inhibition measured photometrically after 3 to 4 days; compared to untreated control; read-out: disease control
How it was run: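 Percent activity against the untreated check was derived from photometric growth measurements made 2 to 7 days after conidia in potato dextrose broth were combined with compound at 20 ppm. Cultures were kept dark at 24 °C and 96% humidity.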

[2] = system: Puccinia recondita f. Sp. Tritici; experiment: Fungicidal activity against Puccinia recondita f. sp. tritici / wheat / leaf disc preventative (brown rust); assay type: in vivo; conditions: foliar, 200 ppm in the applied formulation, wheat leaf segments, preventative, compared to untreated control leaf disks, read-out: disease control
How it was run: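 200 ppm spray on wheat cv. Kanzler leaf segments; spore inoculation +1 day; 19° C., 75% rh, 12 h/12 h light cycle; single rating of % control vs untreated at 7 to 9 days.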

[3] = system: Puccinia recondita f. Sp. Tritici; experiment: Fungicidal activity against Puccinia recondita f. sp. tritici / wheat / leaf disc curative (brown rust); assay type: in vivo; conditions: foliar, 24 h, 200 ppm in the applied formulation, wheat leaf segments, curative (applied 1 day after inoculation), compared to untreated control leaf disks, read-out: disease control
How it was run: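 Curative leaf-segment test: compound diluted in water applied 1 day after spore inoculation of cv. Kanzler wheat segments on agar. Conditions 19° C, 75% RH, 12 h/12 h light cycle. Read-out: % disease control relative to untreated check, 6 to 8 days after application.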

| SMILES | pest or weed control at 200 ppm (Phakopsora Pachyrhizi) [%] | inhibition of growth at 20 ppm [1] [%] | pest or weed control at 200 ppm [2] [%] | pest or weed control at 200 ppm [3] [%] |
| --- | --- | --- | --- | --- |
| CCC(C)(CC)C(=O)N(Cc1ccc(-c2noc(C(F)(F)F)n2)cc1)OC [Compound 1.58, 2-ethyl-N-methoxy-2-methyl-N-[[4-[5-(trifluoromethyl)-1,2,4-oxadiazol-3-yl]phenyl]methyl]-butanamide] | ≥ 80 | ≥ 80 |  |  |
| CCC(CC(=O)N(Cc1ccc(-c2noc(C(F)(F)F)n2)cc1)OC)C(F)(F)F (centres unmarked) [Compound 1.82, N-methoxy-3-(trifluoromethyl)-N-[[4-[5-(trifluoromethyl)-1,2,4-oxadiazol-3-yl]phenyl]methyl]-pentamide] | ≥ 80 | ≥ 80 |  |  |
| C#CCN(Cc1ccc(-c2noc(C(F)(F)F)n2)cc1)C(=O)CC1CC1(F)F (centres unmarked) [Compound 1.197, 2-(2,2-difluorocyclopropyl)-N-prop-2-ynyl-N-[[4-[5-(trifluoromethyl)-1,2,4-oxadiazol-3-yl]phenyl]methyl]-acetamide] | ≥ 80 |  |  |  |
| C#CCOC(=O)NC(C(=O)N(Cc1ccc(-c2noc(C(F)(F)F)n2)cc1)CC1CC1)C(C)C (centres unmarked) [Compound 1.241, prop-2-ynyl N-[1-(cyclopropylmethyl-[[4-[5-(trifluoromethyl)-1,2,4-oxadiazol-3-yl]phenyl]methyl]-carbamoyl]-2-methyl-propyl]carbamate] | ≥ 80 |  |  |  |
| O=C(OCCN(Cc1ccc(-c2noc(C(F)(F)F)n2)cc1)C(=O)c1ccccc1Cl)c1ccccc1Cl [Compound 1.710, 2-[(2-chlorobenzoyl)-[[4-[5-(trifluoromethyl)-1,2,4-oxadiazol-3-yl]phenyl]methyl]-amino]ethyl 2-chlorobonzoato] | ≥ 80 |  |  |  |
| COCCCC(=O)N(Cc1ccc(-c2noc(C(F)(F)F)n2)cc1)C1COC1 [Compound 1.746, 4-methoxy-N-(oxetan-3-yl)-N-[[4-[5-(trifluoromethyl)-1,2,4-oxadiazol-3-yl]phenyl]methyl]-butanamide] | ≥ 80 |  |  |  |
| CCN(Cc1ccc(-c2noc(C(F)(F)F)n2)cc1)C(=O)N(C)C1(COC)CC1 [Compound 3.95, 1-ethyl-3-[1-(methoxymethyl)-cyclopropyl]-3-methyl-1-[[4-[5-(trifluoromethyl)-1,2,4-oxadiazol-3-yl]phenyl]methyl]urea] |  | ≥ 80 | ≥ 80 | ≥ 80 |
| C=CCN(C)C(=O)N(CC)Cc1ccc(-c2noc(C(F)(F)F)n2)cc1 [Compound 3.97, 1-allyl-3-ethyl-1-methyl-3-[[4-[5-(trifluoromethyl)-1,2,4-oxadiazol-3-yl]phenyl]methyl]urea] |  | ≥ 80 | ≥ 80 | ≥ 80 |
| CCN(Cc1ccc(-c2noc(C(F)(F)F)n2)cc1)C(=O)N(C)C(C)C [Compound 3.98, 1-ethyl-3-isopropyl-3-methyl-1-[[4-[5-(trifluoromethyl)-1,2,4-oxadiazol-3-yl]phenyl]methyl]urea] |  | ≥ 80 | ≥ 80 | ≥ 80 |
| C#CCN(C(=O)N(CC)Cc1ccc(-c2noc(C(F)(F)F)n2)cc1)C1CC1 [Compound 3.99, 1-cyclopropyl-3-ethyl-1-prop-2-ynyl-3-[[4-[5-(trifluoromethyl)-1,2,4-oxadiazol-3-yl]phenyl]methyl]urea] |  | ≥ 80 | ≥ 80 | ≥ 80 |
| CCN(Cc1ccc(-c2noc(C(F)(F)F)n2)cc1)C(=O)N(C)C1CCC1 [Compound 3.101, 1-cyclobutyl-3-ethyl-1-methyl-3-[[4-[5-(trifluoromethyl)-1,2,4-oxadiazol-3-yl]phenyl]methyl]urea] |  | ≥ 80 | ≥ 80 | ≥ 80 |
| CCN(Cc1ccc(-c2noc(C(F)(F)F)n2)cc1)C(=O)N(CCOC)CCOC [Compound 3.102, 1-ethyl-3,3-bis(2-methoxyethyl)-1-[[4-[5-(trifluoromethyl)-1,2,4-oxadiazol-3-yl]phenyl]methyl]urea] |  | ≥ 80 | ≥ 80 | ≥ 80 |
